The test system of data set [1] is Y. lipolytica. The conditions noted are these: cited from earlier work.
Data set [2] deals with Yarrowia lipolytica strain 78-003. The data set can be described thus: FA profile on lipid- versus carbohydrate-containing media. The following applies: for Number of different FAs produced: cells grown 120 h. Format: cell-based. An excerpt:
The hexadecane medium used for FA profile experiments consisted of: 5% v/v hexadecane, 5 g L^−1 yeast nitrogen broth (w/amino acids), 0.5 g L^−1 KH2PO4, and 0.25 g L^−1 Mg2SO4.
Starch medium used for FA profile experiments consisted of: 50 g L^−1 hydrolyzed starch, 2 g L^−1 yeast nitrogen broth (w/amino acids), 0.5 g L^−1 KH2PO4, and 0.25 g L^−1 Mg2SO4. The medium consisted of: 5.4 g L^−1 Tween- 80®, 1.25 g L^−1 (NH4)2SO4, 2.5 g L^−1 KH2PO4, and 0.830 g L^−1 MgSO4. Glucose (5%) medium used for FA profile experiments consisted of: 50 g L^−1 glucose and 3 g L^−1 yeast extract.
Intracellular Lipid Quantification: A modified Bligh and Dyer extraction (Bligh and Dyer 1959) was used to extract lipids from yeast samples. Post-fermentation OP4 culture was withdrawn and aliquoted into pre-weighed 50 ml conical tubes, and tubes were centrifuged, and pellets washed twice with 0.9% NaCl. Pellets were lyophilized overnight using a BT3.3 EL Lyophilizer Tabletop (SP Scientific, USA), weighed, and suspended in a 2:1 v/v chloroform: methanol mixture (5 ml per 50 mg cell dry weight) and sonicated using a Sonic Dismembrator (Fisher Scientific, USA) at 20 kHz, 20% amplitude with pulsing (40 s on, 20 s off for a total working time of 20 min). The chloroform layer was taken and dried under a nitrogen stream. Dried lipids were weighed and derivatized for GC/MS analysis via base-catalyzed esterification with 2.5 ml sodium methoxide (0.1 M) (Milanesio et al. 2013). The reaction was quenched using 200 μL sulfuric acid (>95%), and 2.5 ml hexane was added to each sample, which was then vortexed and centrifuged (5 min at 5000 rpm). 1.5 ml from the top hexane layer was withdrawn for GC/MS analysis.
GC/MS Analysis of Lipid Profile: The FA profile was characterized with an Agilent 7890A gas chromatograph (GC) attached to a 5977A mass spectrometer detector and equipped with an Agilent J&W HP-5 ms UI capillary column ([…]×0.25 mm×[…]). 1 μL samples were injected via an Agilent 7693 Automatic Liquid Sampler in splitless mode with an inlet temperature of 275° C., using helium as the carrier gas at a flow rate of 1 ml min·1. GC oven temperature was held at 60° C. for 1 min, and ramped to 100° C. (rate: 25° C. min·1; hold 1 min). The oven temperature was then increased to 200° C. (rate: 25° C. min^−1; hold 1 min). The oven temperature is then increased to 220° C. (rate: […]; hold 7 min) and then increased to an ending temperature of 300° C. (rate: 25° C. min·1; hold 2 min). A C8-C24 FAME analytical standard was used during sample analyses as an external standard (Sigma Aldrich, USA).

Data set [3] relates to Yarrowia lipolytica ATCC strain 46482. The data set can be described thus: Intracellular lipid quantification and GC/MS fatty acid profile, OP5 / PCOP5 medium. Format: cell-based. The following applies: growth in OP5 medium. As for the experimental part: Fermentation Optimization: For fermentation optimization experiments, pH, inoculum density, osmolarity, or carbon-nitrogen ratio were altered. For pH experiments, OP5 medium pH was adjusted to 4.0, 5.0, or 6.0 using 2.0 M H2SO4 or 4.0 M NaOH. A Corning 320 pH meter (Corning, USA) was used to measure pH. For starting inoculum density experiments, OP5 medium was inoculated at an inoculum density of either 1.0, 3.0, or 6.0. Aliquots of 1 ml were retrieved from Y. lipolytica overnight culture and inoculum density was measured via absorbance at 600 nm. Based on absorbance readings, a volume of cells corresponding to the desired inoculum density was retrieved from the overnight culture and centrifuged at 4,000 rpm. Pelleted cells were washed twice with 50 mM PBS solution and used to inoculate OP5 medium. […] After the selected parameters were altered, shake flask fermentations were carried out for 120 hours, after which cells were processed and biomass and lipid product formation were analyzed as described below. […]
Component media experiments were carried out in 500 ml Erlenmeyer flasks containing 50 ml medium, and Y. lipolytica was inoculated at an inoculum density of 1.0. […] The supernatant was decanted and cells washed twice with 50 mM PBS before being lyophilized, weighed as described above, and lipids extracted and quantified as described in the following section. […]

The nature of data set [4]: Precipitation of polyester-derived medium as a function of pH. Format: physicochemical. The following applies: PTT1 medium, pH lowered. Here is the method:
Method: One g of PTT fiber is added to 4 ml of industrial grade ethanol (100 percent ethanol), 1 ml DMSO+0.41 g NaOH (18 percent w/v). The mixture is refluxed with heating […] for 45 −60 min; the reflux allows for heating of the mixture without the ethanol evaporating. The heating process to depolymerize the fibers is as follows: in the first 5 min, no stirring, then stir for 10 min while the fibers crystallize into a white substance. Continue the heating/reflux for the remainder of the prescribed time, then let the system cool. The product will be a bluish, slurry with white crystals; it may also contain residual carpet materials such as polypropylene, calcium carbonate and adhesive. The bluish liquid is the alcohol fraction, containing the alcohol soluble components derived from PTT (propanol, propanal). The white crystals are the TPA. The pH during reflux is 12 to 13 and the pH of slurry is 12-12.5. The slurry can be centrifuged to separate the alcohol and TPA fractions, or the slurry can be added to an aqueous solution adjusted to pH=11 or 12 using NaOH. This latter step is used to make PTT1 medium. In PTT1 medium, the contents as described are added to 1 liter of pH adjusted water, while mixing; the added compounds will not precipitate. The pH of the resulting solution is adjusted to 9.5, typically using HCl and NaOH. 300 mg/l yeast extract is added as a N source. […]

[5] abbreviates: 250 g L^−1 substrate, strain with Poxl-6 and TGL4 inhibited.
The mark [6] stands for this setting: Y. lipolytica growing on the medium, this work.

Read-outs that look alike come from different tables or passages of the source.

In the case of `OCC(O)CO` [Glycerol, glycerol], in data set [1] (setting [5]), the Lipid content is recorded as 31 % CDW and the Lipid yield was 15.5 g/L. In data set [1] (source Aggelis 2002), the “C 16:0 in C 16 and C 18 FA profile” value was 15 percentages; the “C 16:1 in C 16 and C 18 FA profile” value is listed as 2 percentages; the “C 18:0 in C 16 and C 18 FA profile” value is recorded as 11 percentages; the “C 18:1 in C 16 and C 18 FA profile” value is listed as 47 percentages. The “C 18:2 in C 16 and C 18 FA profile” value in data set [1] (source Aggelis 2002) is listed as 21 percentages. Also, in data set [1] (source André et al. 2009), the “C 16:0 in C 16 and C 18 FA profile” value was 12 percentages; the “C 16:1 in C 16 and C 18 FA profile” value is 11 percentages; the “C 18:0 in C 16 and C 18 FA profile” value is 9 percentages; the “C 18:1 in C 16 and C 18 FA profile” value is on record as 57 percentages. Also, in data set [1] (source André et al. 2009), the “C 18:2 in C 16 and C 18 FA profile” value is on record as 11 percentages. Also, in data set [1] (source Makri et al. 2010), the “C 16:0 in C 16 and C 18 FA profile” value was 13 percentages; the “C 16:1 in C 16 and C 18 FA profile” value was 17 percentages; the “C 18:0 in C 16 and C 18 FA profile” value is 6 percentages; the “C 18:1 in C 16 and C 18 FA profile” value is 55 percentages. In data set [1] (source Makri et al. 2010), the “C 18:2 in C 16 and C 18 FA profile” value is on record as 7 percentages.
Regarding `CCCCCCCCCCCCCCCC` [Hexadecane, hexadecane], in data set [2] (setting [6]), the “C 16:0 in C 16 and C 18 FA profile” value was 46 percentages; the “C 16:1 in C 16 and C 18 FA profile” value is 15 percentages; the “C 18:0 in C 16 and C 18 FA profile” value was found to be 10 percentages; the “C 18:1 in C 16 and C 18 FA profile” value is 25 percentages. In addition, the “C 18:2 in C 16 and C 18 FA profile” value in data set [2] (setting [6]) is 4 percentages. Further, the “Number of different FAs produced” value in data set [2] turned out to be 5.
Turning to `O=C[C@H](O)[C@@H](O)[C@H](O)[C@H](O)CO` [Glucose, glucose], in data set [2] (setting [6]), the “C 16:0 in C 16 and C 18 FA profile” value turned out to be 16 percentages; the “C 16:1 in C 16 and C 18 FA profile” value came out at 21 percentages; the “C 18:0 in C 16 and C 18 FA profile” value was found to be 7 percentages; the “C 18:1 in C 16 and C 18 FA profile” value amounted to 56 percentages. Moreover, the “Number of different FAs produced” value in data set [2] came to 10.
`CCCCCCCC/C=C\CCCCCCCC(=O)OCCOCC(OCCO)C1OCC(OCCO)C1OCCO` (stereo not drawn) [Tween® 80, polysorbate 80]: the “Fatty acids produced attributable to carbon from the component” value in data set [3] was determined as 0.4 g/L.
Consider `O=C(O)c1ccc(C(=O)O)cc1` [TPA, terephthalic acid], for which the “pH at which it precipitates from the medium” value in data set [4] is given as “around 8.5”.

The record behind these values is patent US20230250253A1, “PLASTIC POLYMER BIOCONVERSION PROCESS” (GEORGIA STATE UNIVERSITY RESEARCH FOUNDATION, INC., priority 2020, published 2023).
